Test results taken from ChEMBL document CHEMBL1135112, “Shikonin derivatives: synthesis and inhibition of human telomerase” (Bioorg Med Chem Lett, 2002).
Active and inactive are the calls of the source. The calls are words filed in the database; no cut-off is given here.

Tested on: HL-60
Experiment: The compound was tested in vitro for its cytotoxicity against human HL-60 cancer cell line by MTT method at 1 uM concentration; Slight inhibition
Assay type: functional, cell-based
Conditions: not given

Row | SMILES | Activity
1 | CCCCCCCCCCCC(=O)OC(CC=C(C)C)C1=CC(=O)c2c(O)ccc(O)c2C1=O (centres undefined) | Slight inhibition
2 | CC(C)=CCC(OC(=O)Cc1c[nH]c2ccccc12)C1=CC(=O)c2c(O)ccc(O)c2C1=O (centres undefined) | Slight inhibition
3 | CC(C)=CCC(OC(=O)c1ccc2ccccc2c1)C1=CC(=O)c2c(O)ccc(O)c2C1=O (centres undefined) | Slight inhibition
4 | CC(C)=CC[C@@H](O)C1=CC(=O)c2c(O)ccc(O)c2C1=O | Slight inhibition
5 | CC(C)=CCC(OC(=O)c1cccc2ccccc12)C1=CC(=O)c2c(O)ccc(O)c2C1=O (centres undefined) | Slight inhibition
6 | CC(C)=CC[C@H](O)C1=CC(=O)c2c(O)ccc(O)c2C1=O | Slight inhibition
7 | CC(C)=CCC(OC(=O)COc1ccc2ccccc2c1)C1=CC(=O)c2c(O)ccc(O)c2C1=O (centres undefined) | Slight inhibition
8 | CC(C)=CCC(OC(=O)CCCCC(C)C)C1=CC(=O)c2c(O)ccc(O)c2C1=O (centres undefined) | Significant inhibition
9 | CCCC(=O)OC(CC=C(C)C)C1=CC(=O)c2c(O)ccc(O)c2C1=O (centres undefined) | Slight inhibition
10 | CC(C)=CCC(O)C1=CC(=O)c2c(O)ccc(O)c2C1=O (centres undefined) | Slight inhibition
11 | CC(C)=CCC(OC(=O)c1cccnc1)C1=CC(=O)c2c(O)ccc(O)c2C1=O (centres undefined) | Slight inhibition

Tested on: P388
Experiment: The compound was tested in vitro for its cytotoxicity against […] P-388 cancer cell line by MTT method at 1 uM concentration; Total inhibition
Assay type: functional, cell-based
Conditions: not given

Row | SMILES | Activity
12 | CC1(C)CC[C@@H](C2=CC(=O)c3c(O)ccc(O)c3C2=O)O1 | Total inhibition
13 | CC1(C)CC[C@H](C2=CC(=O)c3c(O)ccc(O)c3C2=O)O1 | Total inhibition

Tested on: P388
Experiment: The compound was tested in vitro for its cytotoxicity against […] P-388 cancer cell line by MTT method at 1 uM concentration; No inhibition
Assay type: functional, cell-based
Conditions: Mus musculus

Row | SMILES | Activity
14 | CCCCCCCCCCCC(=O)OC(CC=C(C)C)C1=CC(=O)c2c(O)ccc(O)c2C1=O (centres undefined) | inactive
15 | CC(C)=CCC(OC(=O)Cc1c[nH]c2ccccc12)C1=CC(=O)c2c(O)ccc(O)c2C1=O (centres undefined) | inactive
16 | CC(C)=CCC(OC(=O)c1ccc2ccccc2c1)C1=CC(=O)c2c(O)ccc(O)c2C1=O (centres undefined) | inactive
17 | CC(C)=CCC(OC(=O)c1cccc2ccccc12)C1=CC(=O)c2c(O)ccc(O)c2C1=O (centres undefined) | inactive
18 | CC(C)=CCC(OC(=O)c1ccccc1)C1=CC(=O)c2c(O)ccc(O)c2C1=O (centres undefined) | inactive
19 | CC(C)=CCC(OC(=O)COCc1ccccc1)C1=CC(=O)c2c(O)ccc(O)c2C1=O (centres undefined) | inactive
20 | CC(C)=CCC(OC(=O)COc1ccc2ccccc2c1)C1=CC(=O)c2c(O)ccc(O)c2C1=O (centres undefined) | inactive
21 | CC(C)=CCC(OC(=O)CCCCC(C)C)C1=CC(=O)c2c(O)ccc(O)c2C1=O (centres undefined) | inactive
22 | CCCC(=O)OC(CC=C(C)C)C1=CC(=O)c2c(O)ccc(O)c2C1=O (centres undefined) | inactive
23 | CC(C)=CCC(OC(=O)c1cccnc1)C1=CC(=O)c2c(O)ccc(O)c2C1=O (centres undefined) | inactive

Tested on: HL-60
Experiment: The compound was tested in vitro for its cytotoxicity against human HL-60 cancer cell line by MTT method at 1 uM concentration; Total inhibition
Assay type: functional, cell-based
Conditions: not given

Row | SMILES | Activity
24 | CC1(C)CC[C@@H](C2=CC(=O)c3c(O)ccc(O)c3C2=O)O1 | Total inhibition
25 | CC1(C)CC[C@H](C2=CC(=O)c3c(O)ccc(O)c3C2=O)O1 | Total inhibition

Target: T1, DNA polymerase I, thermostable (Thermus aquaticus, UniProt P19821)
T1 sequence (P19821 whole entry): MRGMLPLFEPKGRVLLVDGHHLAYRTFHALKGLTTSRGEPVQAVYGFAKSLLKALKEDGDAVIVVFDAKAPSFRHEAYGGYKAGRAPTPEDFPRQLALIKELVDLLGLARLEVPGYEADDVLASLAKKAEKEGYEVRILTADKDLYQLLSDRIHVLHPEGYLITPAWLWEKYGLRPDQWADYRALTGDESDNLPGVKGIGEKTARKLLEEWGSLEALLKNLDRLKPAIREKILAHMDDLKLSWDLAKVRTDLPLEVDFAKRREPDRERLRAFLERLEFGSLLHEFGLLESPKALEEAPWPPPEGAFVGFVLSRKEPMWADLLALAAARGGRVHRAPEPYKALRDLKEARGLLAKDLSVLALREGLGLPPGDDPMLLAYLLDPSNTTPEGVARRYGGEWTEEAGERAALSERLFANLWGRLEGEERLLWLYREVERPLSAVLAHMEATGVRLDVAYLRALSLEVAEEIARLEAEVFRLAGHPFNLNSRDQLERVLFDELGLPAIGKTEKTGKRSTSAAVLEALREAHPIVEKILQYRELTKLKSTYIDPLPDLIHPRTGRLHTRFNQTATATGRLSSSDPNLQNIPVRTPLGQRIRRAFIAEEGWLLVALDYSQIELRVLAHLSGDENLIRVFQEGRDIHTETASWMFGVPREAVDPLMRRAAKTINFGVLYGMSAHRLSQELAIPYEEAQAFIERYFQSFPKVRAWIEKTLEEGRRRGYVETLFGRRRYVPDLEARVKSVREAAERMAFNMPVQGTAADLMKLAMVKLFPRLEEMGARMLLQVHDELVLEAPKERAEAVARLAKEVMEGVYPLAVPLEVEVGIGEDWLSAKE
Experiment: Tested for 50% inhibition against Taq DNA polymerase at the concentration of 10 uM; No inhibition
Conditions: not given

Row | SMILES | IC50
26 | CC(=O)O[C@H](CC=C(C)C)C1=CC(=O)c2c(O)ccc(O)c2C1=O [ACETYLSHIKONIN] | Not Active

Target: Telomerase reverse transcriptase (Homo sapiens, UniProt O14746)
Sequence (O14746 whole entry): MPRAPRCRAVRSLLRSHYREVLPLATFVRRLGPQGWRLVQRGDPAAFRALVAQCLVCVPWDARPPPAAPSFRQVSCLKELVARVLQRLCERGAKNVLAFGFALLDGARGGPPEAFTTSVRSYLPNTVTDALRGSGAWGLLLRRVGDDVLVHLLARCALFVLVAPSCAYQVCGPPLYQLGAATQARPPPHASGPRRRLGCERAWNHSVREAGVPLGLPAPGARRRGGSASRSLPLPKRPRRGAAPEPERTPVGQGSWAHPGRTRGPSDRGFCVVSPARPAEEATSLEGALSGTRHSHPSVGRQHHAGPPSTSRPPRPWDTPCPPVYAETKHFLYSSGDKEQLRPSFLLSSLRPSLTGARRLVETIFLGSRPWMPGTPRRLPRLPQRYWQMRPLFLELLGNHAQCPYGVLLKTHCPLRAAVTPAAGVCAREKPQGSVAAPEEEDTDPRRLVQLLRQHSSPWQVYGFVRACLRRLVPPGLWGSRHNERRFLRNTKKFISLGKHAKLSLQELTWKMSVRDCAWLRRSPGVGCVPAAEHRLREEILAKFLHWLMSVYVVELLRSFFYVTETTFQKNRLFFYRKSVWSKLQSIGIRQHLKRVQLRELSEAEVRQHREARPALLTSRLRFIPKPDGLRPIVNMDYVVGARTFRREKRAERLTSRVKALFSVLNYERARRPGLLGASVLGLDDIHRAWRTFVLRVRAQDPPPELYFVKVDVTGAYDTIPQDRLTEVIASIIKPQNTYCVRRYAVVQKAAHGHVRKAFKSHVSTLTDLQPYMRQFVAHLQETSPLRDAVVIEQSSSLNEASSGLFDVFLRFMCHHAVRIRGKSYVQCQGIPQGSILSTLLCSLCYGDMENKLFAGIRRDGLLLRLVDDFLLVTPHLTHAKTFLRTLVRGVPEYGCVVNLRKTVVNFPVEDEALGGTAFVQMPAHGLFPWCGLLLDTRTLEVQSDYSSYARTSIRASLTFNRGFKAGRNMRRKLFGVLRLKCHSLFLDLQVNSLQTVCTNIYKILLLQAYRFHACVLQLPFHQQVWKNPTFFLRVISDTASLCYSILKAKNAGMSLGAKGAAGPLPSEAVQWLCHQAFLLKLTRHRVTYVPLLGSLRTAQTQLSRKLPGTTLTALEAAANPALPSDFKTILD
Experiment: Tested for 50% inhibition against Telomerase
Conditions: not given

Row | SMILES | IC50 [µM]
27 | CC(=O)O[C@H](CC=C(C)C)C1=CC(=O)c2c(O)ccc(O)c2C1=O [ACETYLSHIKONIN] | 37.3

Tested on: Bel-7402
Experiment: Tested in vitro for inhibitory effect on the growth of BEL -7402 cell line
Assay type: functional, cell-based
Conditions: Homo sapiens

Row | SMILES | IC50 [µM]
28 | CC(C)=CCC(OC(=O)c1ccc2ccccc2c1)C1=CC(=O)c2c(O)ccc(O)c2C1=O (centres undefined) | 67
29 | CC(C)=CCC(OC(=O)CCCCC(C)C)C1=CC(=O)c2c(O)ccc(O)c2C1=O (centres undefined) | 0.00017
30 | CC(=O)O[C@H](CC=C(C)C)C1=CC(=O)c2c(O)ccc(O)c2C1=O [ACETYLSHIKONIN] | 0.068

Tested on: K562
Experiment: Tested in vitro for inhibitory effect on the growth of K-562 cell line
Assay type: functional, cell-based
Conditions: Homo sapiens

Row | SMILES | IC50 [µM]
31 | CC(C)=CCC(OC(=O)c1ccc2ccccc2c1)C1=CC(=O)c2c(O)ccc(O)c2C1=O (centres undefined) | 31
32 | CC(C)=CCC(OC(=O)CCCCC(C)C)C1=CC(=O)c2c(O)ccc(O)c2C1=O (centres undefined) | 18
33 | CC(=O)O[C@H](CC=C(C)C)C1=CC(=O)c2c(O)ccc(O)c2C1=O [ACETYLSHIKONIN] | 29

Tested on: HL-60
Experiment: The compound was tested in vitro for its cytotoxicity against human HL-60 cancer cell line by MTT method at 1 uM concentration; No inhibition
Assay type: functional, cell-based
Conditions: not given

Row | SMILES | Activity
34 | CC(C)=CCC(OC(=O)c1ccccc1)C1=CC(=O)c2c(O)ccc(O)c2C1=O (centres undefined) | inactive

Tested on: A549
Experiment: The compound was tested in vitro for its cytotoxicity against human A-549 cancer cell line by MTT method at 1 uM concentration; Slight inhibition
Assay type: functional, cell-based
Conditions: not given

Row | SMILES | Activity
35 | CCCCCCCCCCCC(=O)OC(CC=C(C)C)C1=CC(=O)c2c(O)ccc(O)c2C1=O (centres undefined) | Slight inhibition
36 | CC(C)=CC[C@@H](O)C1=CC(=O)c2c(O)ccc(O)c2C1=O | Slight inhibition
37 | CC(C)=CC[C@H](O)C1=CC(=O)c2c(O)ccc(O)c2C1=O | Slight inhibition
38 | CC(C)=CCC(O)C1=CC(=O)c2c(O)ccc(O)c2C1=O (centres undefined) | Slight inhibition

Target: T1, DNA polymerase I, thermostable
Experiment: Tested for 50% inhibition against Taq DNA polymerase at the concentration of 50 uM; No inhibition
Conditions: not given

Row | SMILES | IC50
39 | CC(=O)O[C@H](CC=C(C)C)C1=CC(=O)c2c(O)ccc(O)c2C1=O [ACETYLSHIKONIN] | Not Active

Tested on: MCF7
Experiment: Tested in vitro for inhibitory effect on the growth of MCF-7 cell line
Assay type: functional, cell-based
Conditions: Homo sapiens

Row | SMILES | IC50 [µM]
40 | CC(C)=CCC(OC(=O)c1ccc2ccccc2c1)C1=CC(=O)c2c(O)ccc(O)c2C1=O (centres undefined) | 93
41 | CC(C)=CCC(OC(=O)CCCCC(C)C)C1=CC(=O)c2c(O)ccc(O)c2C1=O (centres undefined) | 250
42 | CC(=O)O[C@H](CC=C(C)C)C1=CC(=O)c2c(O)ccc(O)c2C1=O [ACETYLSHIKONIN] | 31

Tested on: A549
Experiment: Tested in vitro for inhibitory effect on the growth of human A-549 cancer cell line
Assay type: functional, cell-based
Conditions: not given

Row | SMILES | IC50 [µM]
43 | CC(C)=CCC(OC(=O)c1ccc2ccccc2c1)C1=CC(=O)c2c(O)ccc(O)c2C1=O (centres undefined) | 390
44 | CC(C)=CCC(OC(=O)CCCCC(C)C)C1=CC(=O)c2c(O)ccc(O)c2C1=O (centres undefined) | 0.016
45 | CC(=O)O[C@H](CC=C(C)C)C1=CC(=O)c2c(O)ccc(O)c2C1=O [ACETYLSHIKONIN] | 39

Tested on: A549
Experiment: The compound was tested in vitro for its cytotoxicity against human A-549 cancer cell line by MTT method at 1 uM concentration; Significant inhibition
Assay type: functional, cell-based
Conditions: not given

Row | SMILES | Activity
46 | CC(C)=CCC(OC(=O)CCCCC(C)C)C1=CC(=O)c2c(O)ccc(O)c2C1=O (centres undefined) | Significant inhibition
47 | CC(=O)O[C@H](CC=C(C)C)C1=CC(=O)c2c(O)ccc(O)c2C1=O [ACETYLSHIKONIN] | Significant inhibition

Target: T1, DNA polymerase I, thermostable
Experiment: Tested for 50% inhibition against Taq DNA polymerase at the concentration of 20 uM; No inhibition
Conditions: not given

Row | SMILES | IC50
48 | CC(=O)O[C@H](CC=C(C)C)C1=CC(=O)c2c(O)ccc(O)c2C1=O [ACETYLSHIKONIN] | Not Active

Tested on: P388
Experiment: The compound was tested in vitro for its cytotoxicity against […] P-388 cancer cell line by MTT method at 1 uM concentration; Slight inhibition
Assay type: functional, cell-based
Conditions: Mus musculus

Row | SMILES | Activity
49 | CC(C)=CC[C@@H](O)C1=CC(=O)c2c(O)ccc(O)c2C1=O | Slight inhibition
50 | CC(C)=CC[C@H](O)C1=CC(=O)c2c(O)ccc(O)c2C1=O | Slight inhibition
51 | CC(C)=CCC(O)C1=CC(=O)c2c(O)ccc(O)c2C1=O (centres undefined) | Slight inhibition
52 | CC(=O)O[C@H](CC=C(C)C)C1=CC(=O)c2c(O)ccc(O)c2C1=O [ACETYLSHIKONIN] | Significant inhibition

Tested on: A549
Experiment: The compound was tested in vitro for its cytotoxicity against human A-549 cancer cell line by MTT method at 1 uM concentration; No inhibition
Assay type: functional, cell-based
Conditions: not given

Row | SMILES | Activity
53 | CC(C)=CCC(OC(=O)Cc1c[nH]c2ccccc12)C1=CC(=O)c2c(O)ccc(O)c2C1=O (centres undefined) | inactive
54 | CC(C)=CCC(OC(=O)c1ccc2ccccc2c1)C1=CC(=O)c2c(O)ccc(O)c2C1=O (centres undefined) | inactive
55 | CC(C)=CCC(OC(=O)c1cccc2ccccc12)C1=CC(=O)c2c(O)ccc(O)c2C1=O (centres undefined) | inactive
56 | CC(C)=CCC(OC(=O)c1ccccc1)C1=CC(=O)c2c(O)ccc(O)c2C1=O (centres undefined) | inactive
57 | CC1(C)CC[C@@H](C2=CC(=O)c3c(O)ccc(O)c3C2=O)O1 | inactive
58 | CC1(C)CC[C@H](C2=CC(=O)c3c(O)ccc(O)c3C2=O)O1 | inactive
59 | CC(C)=CCC(OC(=O)COCc1ccccc1)C1=CC(=O)c2c(O)ccc(O)c2C1=O (centres undefined) | inactive
60 | CC(C)=CCC(OC(=O)COc1ccc2ccccc2c1)C1=CC(=O)c2c(O)ccc(O)c2C1=O (centres undefined) | inactive
61 | CCCC(=O)OC(CC=C(C)C)C1=CC(=O)c2c(O)ccc(O)c2C1=O (centres undefined) | inactive
62 | CC(C)=CCC(OC(=O)c1cccnc1)C1=CC(=O)c2c(O)ccc(O)c2C1=O (centres undefined) | inactive

Tested on: SGC-7901
Experiment: Tested in vitro for inhibitory effect on the growth of human gastric carcinoma SGC-7901 cell line
Assay type: functional, cell-based
Conditions: not given

Row | SMILES | IC50 [µM]
63 | CC(C)=CCC(OC(=O)c1ccc2ccccc2c1)C1=CC(=O)c2c(O)ccc(O)c2C1=O (centres undefined) | 49
64 | CC(C)=CCC(OC(=O)CCCCC(C)C)C1=CC(=O)c2c(O)ccc(O)c2C1=O (centres undefined) | 0.001
65 | CC(=O)O[C@H](CC=C(C)C)C1=CC(=O)c2c(O)ccc(O)c2C1=O [ACETYLSHIKONIN] | 0.29

Tested on: HL-60
Experiment: The compound was tested in vitro for its cytotoxicity against human HL-60 cancer cell line by MTT method at 1 uM concentration; Significant inhibition
Assay type: functional, cell-based
Conditions: not given

Row | SMILES | Activity
66 | CC(=O)O[C@H](CC=C(C)C)C1=CC(=O)c2c(O)ccc(O)c2C1=O [ACETYLSHIKONIN] | Significant inhibition

Tested on: WI-38
Experiment: Tested in vitro for inhibitory effect on the growth of WI-38 cell line; No cytotoxicity
Assay type: functional, cell-based, Homo sapiens
Conditions: not given

Row | SMILES | IC50
67 | CC(C)=CCC(OC(=O)c1ccc2ccccc2c1)C1=CC(=O)c2c(O)ccc(O)c2C1=O (centres undefined) | No cytotoxicity
68 | CC(C)=CCC(OC(=O)CCCCC(C)C)C1=CC(=O)c2c(O)ccc(O)c2C1=O (centres undefined) | No cytotoxicity
69 | CC(=O)O[C@H](CC=C(C)C)C1=CC(=O)c2c(O)ccc(O)c2C1=O [ACETYLSHIKONIN] | No cytotoxicity
